From paper PMC9667784, “Synthesis, biological evaluation and computational studies of pyrazole derivatives as Mycobacterium tuberculosis CYP121A1 inhibitors” (RSC Medicinal Chemistry, 2022) come the findings set out here.

The target of the test is BTFA-labelled CYP121_S171C (Mycobacterium tuberculosis, UniProt P9WPP7, S171C). In kind it is binding.

Molecules are shown by their SMILES.

As for `COc1ccc(-c2nn(-c3ccc(Cl)cc3)cc2Cn2cncn2)cc1` [12b, 1-((1-(4-Chlorophenyl)-3-(4-methoxyphenyl)-1H-pyrazol-4-yl)methyl)-1H-1,2,4-triazole], the “19F NMR perturbations of the FG-loop compared with cYY” value is “more intense than that of cYY”.
For `CCOc1ccc(-c2nn(-c3ccc(Cl)cc3)cc2Cn2cncn2)cc1` [12d, 1-((1-(4-Chlorophenyl)-3-(4-ethoxyphenyl)-1H-pyrazol-4-yl)methyl)-1H-1,2,4-triazole], the “19F NMR perturbations of the FG-loop compared with cYY” value was “more intense than that of cYY”.
